Measured values from patent US9920074B2 (ACEA BIOSCIENCES INC., priority 2013, dated 2018).

Target: T1, Jak3 phosphorylation in NK-92 cells (Homo sapiens, UniProt P52333)
T1 construct: endogenous in cells; host or cells: NK-92 cells (ATCC)
T1 sequence (P52333 1-1124): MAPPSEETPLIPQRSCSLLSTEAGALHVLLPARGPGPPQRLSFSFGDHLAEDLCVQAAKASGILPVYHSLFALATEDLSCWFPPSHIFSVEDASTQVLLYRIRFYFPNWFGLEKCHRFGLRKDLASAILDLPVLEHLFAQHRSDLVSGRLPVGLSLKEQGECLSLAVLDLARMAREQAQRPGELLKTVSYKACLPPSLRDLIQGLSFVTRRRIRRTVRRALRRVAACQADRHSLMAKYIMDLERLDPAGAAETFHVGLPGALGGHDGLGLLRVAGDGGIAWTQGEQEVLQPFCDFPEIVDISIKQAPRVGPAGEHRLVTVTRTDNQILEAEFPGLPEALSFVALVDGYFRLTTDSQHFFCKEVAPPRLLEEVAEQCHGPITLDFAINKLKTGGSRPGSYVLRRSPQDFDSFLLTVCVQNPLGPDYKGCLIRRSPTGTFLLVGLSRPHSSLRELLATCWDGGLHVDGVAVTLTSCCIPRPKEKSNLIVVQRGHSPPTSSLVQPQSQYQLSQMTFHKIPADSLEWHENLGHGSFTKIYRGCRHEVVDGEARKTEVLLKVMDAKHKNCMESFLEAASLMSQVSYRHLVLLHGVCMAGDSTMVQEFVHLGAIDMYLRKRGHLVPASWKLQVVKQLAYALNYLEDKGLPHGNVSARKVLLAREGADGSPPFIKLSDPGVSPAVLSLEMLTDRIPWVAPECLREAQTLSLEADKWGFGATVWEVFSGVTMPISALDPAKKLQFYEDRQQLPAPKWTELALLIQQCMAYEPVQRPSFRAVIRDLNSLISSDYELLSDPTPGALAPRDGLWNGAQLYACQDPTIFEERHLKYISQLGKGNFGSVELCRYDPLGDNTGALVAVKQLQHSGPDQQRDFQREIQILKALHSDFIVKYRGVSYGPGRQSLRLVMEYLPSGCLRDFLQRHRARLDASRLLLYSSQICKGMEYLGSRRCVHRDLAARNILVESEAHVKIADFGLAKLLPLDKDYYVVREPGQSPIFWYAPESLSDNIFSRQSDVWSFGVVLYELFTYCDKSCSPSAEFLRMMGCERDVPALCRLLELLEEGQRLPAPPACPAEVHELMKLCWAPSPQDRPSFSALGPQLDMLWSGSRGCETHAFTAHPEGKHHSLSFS
Assay: Western blotting assay for Jak3
Assay type: cell-based
Conditions: 1 hour, IL-2 stimulation, read-out: Jak3 inhibition
Description: All cell lines were obtained from the American Type Culture Collection and were maintained at 37° C. with 5% CO2. Ramos cell line was maintained in media supplemented with 10% fetal bovine serum, penicillin (100 units/mL) and streptomycin (100 μg/mL). NK-92 cell line was maintained in media supplemented with 10% fetal bovine serum and 10% horse serum, penicillin (100 units/mL) and streptomycin (100 μg/mL), IL-2 10 ng/mL. Goat F(ab′)2 Anti-Human IgM-UNLB was obtained from SouthernBiotech. IL-2 was obtained from Peprotech.
NK-92 cells were treated with compounds at the dosed indicated for 1 hour in incubator, followed by the IL-2 stimulation for 15 minutes. Cells were then collected and lysed to prepare the cellular extraction. Western blots were performed on cell lysate using Phospho-Jak3, Jak3, Phospho-Stat5, Stat5 antibodies (Cell Signaling Technology). The intensity of blotting band was acquired using Image Lab (Bio-Rad) software, and the IC50 of target was generated with GraphPad Prism.

`C=CC(=O)Nc1cccc(Oc2nc(Nc3ccc(N4CCN(C)CC4)cc3)ncc2OC)c1` [Compound I-1, N-(3-(5-methoxy-2-(4-(4-methylpiperazin-1-yl)phenylamino)pyrimidin-4-yloxy)phenyl)acrylamide] was tested, and the IC50 was ≤ 0.2 µM.
